In ChEMBL document CHEMBL5038679, “Fluoroalkylation of Dextromethorphan Improves CNS Exposure and Metabolic Stability” (ACS Med Chem Lett, 2022):
In brackets after ≈: the same amount, converted by molar mass.

Experiments:
[1] = molecular target: T1, Sodium-dependent noradrenaline transporter (Homo sapiens, UniProt P23975); assay: Displacement of […] from NET (unknown origin) expressed in HEK cell membrane incubated for 2 hrs by liquid scintillation counter analysis
[2] = molecular target: Glutamate [NMDA] receptor; assay: Displacement of […] from NMDA receptor (unknown origin) expressed in HEK cell membrane incubated for 2 hrs by liquid scintillation counter analysis
[3] = molecular target: Sigma intracellular receptor 2 (Homo sapiens, UniProt Q5BJF2); assay: Displacement of […] from sigma-2 receptor (unknown origin) expressed in HEK cell membrane incubated for 2 hrs by liquid scintillation counter analysis
[4] = molecular target: Sigma non-opioid intracellular receptor 1 (Homo sapiens, UniProt Q99720); assay: Displacement of […] from sigma-1 receptor (unknown origin) expressed in HEK cell membrane incubated for 2 hrs by liquid scintillation counter analysis
[5] = Aqueous solubility of compound in universal buffer at pH 7.4 at 100 uM incubated for 1.5 hrs under shaking condition by LC-MS/MS analysis; type: physicochemical
[6] = Aqueous solubility of compound in universal buffer at pH 3 at 100 uM incubated for 1.5 hrs under shaking condition by LC-MS/MS analysis; type: physicochemical
[7] = molecular target: T1, Sodium-dependent noradrenaline transporter; assay: Inhibition of human NET expressed in human HEK293 cells assessed as inhibition of substrate transport measured after 1 hr by flourescence based plate reader assay; type: cell-based
hERG (KCNH2) = hERG (KCNH2) (Homo sapiens, UniProt Q12809); assay: Inhibition of human ERG at 10 uM measured after 15 mins by plate reader method relative to control; type: toxicity
[8] = Stability in human liver microsomes assessed as half life at 10 uM measured upto 120 mins by LC-MS/MS analysis; type: ADME, Microsome
[9] = Cmax in Sprague-Dawley rat plasma at 2.5 mg/kg, po measured after 24 hrs by LC-MS/MS analysis; type: ADME, organism-based; parameters: route oral, dose 2.5 mg/kg, time 24 hrs
[10] = Cmax in Sprague-Dawley rat brain at 2.5 mg/kg, po measured after 24 hrs by LC-MS/MS analysis; type: ADME, organism-based; parameters: route oral, time 24 hrs, dose 2.5 mg/kg
[11] = AUC in Sprague-Dawley rat plasma at 2.5 mg/kg, po measured after 24 hrs by LC-MS/MS analysis; type: ADME, organism-based; parameters: route oral, time 24 hrs, dose 2.5 mg/kg
[12] = AUC in Sprague-Dawley rat brain at 2.5 mg/kg, po measured after 24 hrs by LC-MS/MS analysis; type: ADME, organism-based; parameters: route oral, time 24 hrs, dose 2.5 mg/kg
[13] = Protein binding in Sprague-Dawley rat plasma assessed as unbound fraction at 20 uM by NMR analysis; type: ADME, cell-free
[14] = Protein binding in Sprague-Dawley rat brain plasma assessed as unbound fraction at 5 uM measured after 4 hrs by LC-MS analysis; type: ADME, tissue-based
[15] = Unbound brain-to-plasma concentration ratio in Sprague-Dawley rat; type: ADME, cell-free; settings: read-out: K(p,uu,brain)
[16] = Volume of distribution in Sprague-Dawley rat at 2.5 mg/kg, po measured after 24 hrs by LC-MS/MS analysis; type: ADME, organism-based; settings: in vivo
[17] = Clearance in Sprague-Dawley rat plasma at 2.5 mg/kg, po measured after 24 hrs by LC-MS/MS analysis; type: ADME, organism-based
[18] = Half life in Sprague-Dawley rat plasma at 2.5 mg/kg, po measured after 24 hrs by LC-MS/MS analysis; type: ADME, organism-based
[19] = Half life in Sprague-Dawley rat brain at 2.5 mg/kg, po measured after 24 hrs by LC-MS/MS analysis; type: ADME, organism-based
in vitro [20] = settings: human, liver microsomes
in vitro [21] = settings: dog, MDCK-MDR1
Description: Apparent permeability in dog MDCK-MDR1 cells from apical to basal side measured after 30 to 120 mins by LC-MS analysis

in vitro [22] = settings: dog, MDCK-MDR1; remark: listed apart in the source
Description: Apparent permeability in dog MDCK-MDR1 cells from basal to apical side measured after 30 to 120 mins by LC-MS analysis

[23] = molecular target: T2, Sodium-dependent serotonin transporter (Homo sapiens, UniProt P31645); assay: biochemical; type: cell-based, HEK
Description: Displacement of [3H]-Citalopram from SERT receptor (unknown origin) expressed in HEK cell membrane incubated for 2 hrs by liquid scintillation counter analysis

[24] = molecular target: T2, Sodium-dependent serotonin transporter; type: cell-based, HEK293
[25] = Efflux ratio of apparent permeability across basolateral to apical side over apical to basolateral side in dog MDCK-MDR1 cells measured after 30 to 120 mins by LC-MS analysis; type: ADME, cell-based, Canis lupus familiaris; settings: time 30-120 min

Sigma non-opioid intracellular receptor 1, sequence (Q99720 whole entry): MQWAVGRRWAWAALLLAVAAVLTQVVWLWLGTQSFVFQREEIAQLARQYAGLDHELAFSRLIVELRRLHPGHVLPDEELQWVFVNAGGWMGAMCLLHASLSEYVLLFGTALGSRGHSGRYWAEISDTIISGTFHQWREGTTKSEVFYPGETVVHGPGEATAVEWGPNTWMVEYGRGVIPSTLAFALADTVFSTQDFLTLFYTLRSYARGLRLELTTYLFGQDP
T2 sequence (P31645 whole entry): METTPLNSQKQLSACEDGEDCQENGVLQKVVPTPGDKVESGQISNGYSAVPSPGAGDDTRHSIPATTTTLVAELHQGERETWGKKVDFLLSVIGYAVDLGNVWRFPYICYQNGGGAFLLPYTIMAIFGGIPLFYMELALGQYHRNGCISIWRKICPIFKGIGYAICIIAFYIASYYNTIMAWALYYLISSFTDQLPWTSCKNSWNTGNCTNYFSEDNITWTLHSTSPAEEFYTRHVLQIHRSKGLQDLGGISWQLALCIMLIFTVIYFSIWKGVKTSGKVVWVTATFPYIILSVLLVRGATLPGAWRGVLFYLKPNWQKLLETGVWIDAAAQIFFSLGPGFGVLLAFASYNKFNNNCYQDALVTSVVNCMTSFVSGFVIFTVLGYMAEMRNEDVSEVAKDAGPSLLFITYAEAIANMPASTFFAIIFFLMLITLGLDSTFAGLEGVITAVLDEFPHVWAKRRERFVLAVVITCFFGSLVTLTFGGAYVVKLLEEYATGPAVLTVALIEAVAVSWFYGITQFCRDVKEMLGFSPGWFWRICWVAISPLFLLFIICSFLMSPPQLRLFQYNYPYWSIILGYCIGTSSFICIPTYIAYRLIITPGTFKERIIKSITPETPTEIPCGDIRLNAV
Sigma intracellular receptor 2, sequence (Q5BJF2 whole entry): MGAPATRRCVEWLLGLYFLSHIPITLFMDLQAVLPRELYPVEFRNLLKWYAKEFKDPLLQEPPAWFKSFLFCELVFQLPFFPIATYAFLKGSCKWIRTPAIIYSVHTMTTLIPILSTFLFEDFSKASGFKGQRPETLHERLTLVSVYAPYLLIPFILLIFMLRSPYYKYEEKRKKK
T1 sequence (P23975 whole entry): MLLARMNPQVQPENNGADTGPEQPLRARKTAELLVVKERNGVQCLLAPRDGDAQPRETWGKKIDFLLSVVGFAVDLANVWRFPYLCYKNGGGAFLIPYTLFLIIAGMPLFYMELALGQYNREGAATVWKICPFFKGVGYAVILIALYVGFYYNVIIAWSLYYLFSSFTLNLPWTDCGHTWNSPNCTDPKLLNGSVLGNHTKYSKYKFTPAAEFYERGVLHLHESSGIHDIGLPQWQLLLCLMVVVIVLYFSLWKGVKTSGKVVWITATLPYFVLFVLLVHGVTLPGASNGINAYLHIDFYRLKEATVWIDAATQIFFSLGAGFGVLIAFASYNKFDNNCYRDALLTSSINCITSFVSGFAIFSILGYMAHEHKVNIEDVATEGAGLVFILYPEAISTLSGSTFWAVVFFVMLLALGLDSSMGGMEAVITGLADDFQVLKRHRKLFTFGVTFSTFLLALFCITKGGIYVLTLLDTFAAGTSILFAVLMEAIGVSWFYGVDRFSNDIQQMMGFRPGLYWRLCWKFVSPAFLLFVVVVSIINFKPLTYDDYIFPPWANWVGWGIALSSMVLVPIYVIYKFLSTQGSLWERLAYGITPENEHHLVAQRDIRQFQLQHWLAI
hERG (KCNH2), sequence (Q12809 whole entry): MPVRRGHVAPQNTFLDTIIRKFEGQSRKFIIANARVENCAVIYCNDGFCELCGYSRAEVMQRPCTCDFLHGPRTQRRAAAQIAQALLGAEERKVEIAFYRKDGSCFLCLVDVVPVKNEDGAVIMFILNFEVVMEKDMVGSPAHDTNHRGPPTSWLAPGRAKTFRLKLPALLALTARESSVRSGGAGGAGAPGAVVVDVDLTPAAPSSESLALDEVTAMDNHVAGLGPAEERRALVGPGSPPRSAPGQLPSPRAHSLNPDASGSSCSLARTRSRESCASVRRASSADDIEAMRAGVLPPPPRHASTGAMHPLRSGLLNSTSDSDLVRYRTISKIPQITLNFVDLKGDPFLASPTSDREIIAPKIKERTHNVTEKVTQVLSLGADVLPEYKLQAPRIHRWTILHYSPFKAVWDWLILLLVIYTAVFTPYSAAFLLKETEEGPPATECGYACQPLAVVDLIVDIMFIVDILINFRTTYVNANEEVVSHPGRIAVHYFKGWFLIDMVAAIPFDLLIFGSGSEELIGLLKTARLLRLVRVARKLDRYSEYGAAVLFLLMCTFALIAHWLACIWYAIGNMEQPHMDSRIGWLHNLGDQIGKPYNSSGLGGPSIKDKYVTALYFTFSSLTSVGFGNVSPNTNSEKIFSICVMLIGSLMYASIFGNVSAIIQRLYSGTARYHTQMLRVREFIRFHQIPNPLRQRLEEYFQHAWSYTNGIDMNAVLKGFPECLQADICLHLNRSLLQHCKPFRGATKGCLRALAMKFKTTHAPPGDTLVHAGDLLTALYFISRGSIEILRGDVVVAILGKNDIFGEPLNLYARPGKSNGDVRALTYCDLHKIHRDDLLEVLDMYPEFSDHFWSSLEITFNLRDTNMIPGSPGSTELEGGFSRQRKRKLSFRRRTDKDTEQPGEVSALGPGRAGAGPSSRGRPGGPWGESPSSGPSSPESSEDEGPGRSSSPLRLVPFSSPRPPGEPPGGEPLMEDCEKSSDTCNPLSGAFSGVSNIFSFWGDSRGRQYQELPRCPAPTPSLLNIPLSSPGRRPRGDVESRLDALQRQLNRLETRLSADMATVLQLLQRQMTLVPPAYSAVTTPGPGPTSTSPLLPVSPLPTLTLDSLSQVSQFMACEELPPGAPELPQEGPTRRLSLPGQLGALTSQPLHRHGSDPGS

SMILES | Ki [1] [nM] | Ki [2] [nM] | Ki [3] [nM] | Ki [4] [nM] | solubility at 1.5 h, 100 µM [5] [µM] | solubility at 1.5 h, 100 µM [6] [µM] | half-life at 10 µM [8] [h] | Cmax [9] [ng/mL] | Cmax [10] [ng/mL] | AUC at 24 h [11] [ng·h/mL] | AUC at 24 h [12] [ng·h/mL] | Kp uu at 20 µM [15] | Vd [16] [L/kg] | CL/F [17] [mL/min/kg] | half-life [18] [h] | half-life [19] [h] | CLint scaled at 2 h, 10 µM (in vitro [20]) [mL/min/kg] | further results
COc1ccc2c(c1)[C@@]13CCCC[C@@H]1[C@@H](C2)N(C)CC3 | > 10000 | 624 | 862 | 73 | 94 (≈ 25.5 µg/mL) | 88 (≈ 23.9 µg/mL) | 3.42 | 9.7 | 214 | 21.3 | 389 | 27.9 | 589 | 2990 | 2 | 2.07 | 6.09 | IC50 [7]: > 10000 nM; inhibition at 0.25 h, 10 µM (hERG (KCNH2)): 0.1%; Cp(f) [13]: 19.3%; Cp(f) [14]: 21.6%; Papp A→B (in vitro [21]): 1.48 ×10⁻⁶ cm/s; Papp B→A (in vitro [22]): 1.21 ×10⁻⁶ cm/s
CN1CC[C@]23CCCC[C@@H]2[C@H]1Cc1ccc(O)cc13 | > 340 | 486 | > 10000 | 118 |  |  |  |  |  |  |  |  |  |  |  |  |  | Ki [23]: 401 nM
[2H]C([2H])([2H])N1CC[C@@]23CCCC[C@@H]2[C@@H]1Cc1ccc(OC(F)(F)F)cc13 |  |  |  |  | 100 (≈ 32.8 µg/mL) | 86 (≈ 28.2 µg/mL) | 2.67 | 32 | 725 | 205 | 5810 | 1.2 | 43 | 202 | 2.45 | 3.03 | 7.81 | Cp(f) [13]: 40.2%; Cp(f) [14]: 2.1%
[2H]C([2H])([2H])N1CC[C@@]23CCCC[C@@H]2[C@@H]1Cc1ccc(OC(F)F)cc13 |  |  |  |  | 101 (≈ 31.4 µg/mL) | 83 (≈ 25.8 µg/mL) | 1.58 |  |  |  |  |  |  |  |  |  | 13.2 | 
[2H]C([2H])([2H])N1CC[C@@]23CCCC[C@@H]2[C@@H]1Cc1ccc(C(F)(F)C(F)(F)F)cc13 |  |  |  |  | 82 (≈ 29.7 µg/mL) | 70 (≈ 25.4 µg/mL) | 2.07 |  |  |  |  |  |  |  |  |  | 10 | 
CN1CC[C@@]23CCCC[C@@H]2[C@@H]1Cc1ccc(OC(F)(F)F)cc13 | > 10000 | > 10000 | 833 | 757 | > 100 | 60 (≈ 19.5 µg/mL) | 3.67 | 12 | 756 | 131 | 9460 | 3.3 | 77 | 318 | 2.8 | 3.18 | 5.66 | Ki [23]: 48 nM; IC50 [24]: 31 nM; IC50 [7]: > 10000 nM; inhibition at 0.25 h, 10 µM (hERG (KCNH2)): 6.1%; efflux ratio [25]: 1.13; Papp A→B (in vitro [21]): 0.989 ×10⁻⁶ cm/s; Papp B→A (in vitro [22]): 1.12 ×10⁻⁶ cm/s
[2H]C([2H])([2H])Oc1ccc2c(c1)[C@@]13CCCC[C@@H]1[C@@H](C2)N(C([2H])([2H])[2H])CC3 |  |  |  |  | 112 (≈ 31.1 µg/mL) | 95.5 (≈ 26.5 µg/mL) | 4.4 | 5.5 | 53.1 | 15 | 97.3 | 10.8 |  | 1840 | 7.07 | 4.9 | 4.72 | 
